Data set [1] has as its system velvetleaf (Abutilon theophrasti). Nature of the data set: Herbicidal effect by foliage and soil treatment. As to conditions: 10 g ai/10a, evaluated after 14 days. It counts as in vivo. In outline:
(§1)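 Greenhouse pot test at 19–25 °C: spray of aqueous Tween 20 formulation onto foliage and soil of seedlings at cotyledonal–bifoliate stage, dose per area predetermined. Scoring on a rating scale after 14 days versus untreated.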

Data set [2] concerns kediock (Sinapis arvensis). In words: Herbicidal effect by foliage and soil treatment. The following applies: 10 g ai/10a, evaluated after 14 days. It counts as in vivo. In outline: as §1
The subject of data set [3] is redroot pigweed (Amaranthus retroflexus). Nature of the data set: Herbicidal effect by foliage and soil treatment. The following applies: 10 g ai/10a, evaluated after 14 days. It counts as in vivo. The procedure, abridged:
as §1

Data set [4] has as its system field bindweed (Convolvulus arvensis). In words: Herbicidal effect by foliage and soil treatment. It counts as in vivo. The following applies: 10 g ai/10a, evaluated after 14 days. In outline:
as §1

Data set [5] has as its system common chickweed (Stellaria media). In words: Herbicidal effect by foliage and soil treatment. It counts as in vivo. As to conditions: 10 g ai/10a, evaluated after 14 days. The procedure, abridged:
as §1

Data set [6] relates to common blackjack (Bidens pilosa). Nature of the data set: Herbicidal effect by foliage and soil treatment. As to conditions: 10 g ai/10a, evaluated after 14 days. It counts as in vivo. In outline: as §1
Data set [7] has as its system sicklepod (Cassia obtusifolia). Nature of the data set: Herbicidal effect by foliage and soil treatment. As to conditions: 10 g ai/10a, evaluated after 14 days. It counts as in vivo. In outline: as §1
The test system of data set [8] is ivyleafspeedwell (Veronica hederaefolia). In words: Herbicidal effect by foliage and soil treatment. It counts as in vivo. As to conditions: 10 g ai/10a, evaluated after 14 days. In outline: as §1
In data set [9] the test system is cleavers (Galium aparine). Nature of the data set: Herbicidal effect by foliage and soil treatment. As to conditions: 10 g ai/10a, evaluated after 14 days. It counts as in vivo. In outline:
as §1

For data set [10], the system named is black nightshade (Solanum nigrum). In words: Herbicidal effect by foliage and soil treatment. It counts as in vivo. The following applies: 10 g ai/10a, evaluated after 14 days. The procedure, abridged: as §1
In data set [11] the test system is wild chamomile (Matricaria chamomilla). Nature of the data set: Herbicidal effect by foliage and soil treatment. As to conditions: 10 g ai/10a, evaluated after 14 days. It counts as in vivo. In outline:
as §1

We go through three compounds from US6339045B1, “N-(unsubstituted or substituted)-4-substituted-6-(unsubstituted or substituted)phenoxy-2-pyridinecarboxamides or thiocarboxamides, processes for producing the same, and herbicides” (Kureha Kagaku Kogyo Kabushiki Kaisha, priority 1995, dated 2002).

The term melting point denotes the temperature, or range, at which the solid turns liquid.

In turn, `CC[S+]([O-])CCNC(=O)c1cc(OC)cc(Oc2cccc(C(F)(F)F)c2)n1` (centres unmarked) [Compound I-69, N-{2-(ethylsulfinyl)ethyl}-4-methoxy-6-{3-(trifluoromethyl)phenoxy}-2-pyridine carboxamide] came in with a melting point of 77 to 79 °C. The “herbicidal activity rating, AT (Abutilon theophrasti)” value in [1] is given as 5 (percentage of weeds killed was not less than 80%). The “herbicidal activity rating, SA (Sinapis arvensis)” value (“herbicidal activity rating, SA” below) in data set [2] is 5 (percentage of weeds killed was not less than 80%). Further, the “herbicidal activity rating, AR (Amaranthus retroflexus)” value (“herbicidal activity rating, AR” below) in data set [3] is on record as 5 (percentage of weeds killed was not less than 80%). Moreover, in data set [4], the “herbicidal activity rating, CA (Convolvulus arvensis)” value (“herbicidal activity rating, CA” below) was 4 (percentage of weeds killed was not less than 60% and less than 80%). Moreover, the “herbicidal activity rating, SM (Stellaria media)” value (“herbicidal activity rating, SM” below) in data set [5] is 4 (percentage of weeds killed was not less than 60% and less than 80%). The “herbicidal activity rating, BP (Bidens pilosa)” value (from here on “herbicidal activity rating, BP”) in [6] is 3 (percentage of weeds killed was not less than 40% and less than 60%). Moreover, in [7], the “herbicidal activity rating, CO (Cassia obtusifolia)” value (shortened to “herbicidal activity rating, CO”) is on record as 5 (percentage of weeds killed was not less than 80%). In addition, the “herbicidal activity rating, VH (Veronica hederaefolia)” value (from here on “herbicidal activity rating, VH”) in data set [8] is reported as 5 (percentage of weeds killed was not less than 80%). In addition, in data set [9], the “herbicidal activity rating, GA (Galium aparine)” value (shortened to “herbicidal activity rating, GA”) is 5 (percentage of weeds killed was not less than 80%). The “herbicidal activity rating, SN (Solanum nigrum)” value (from here on “herbicidal activity rating, SN”) in data set [10] is 5 (percentage of weeds killed was not less than 80%). Moreover, the “herbicidal activity rating, MC (Matricaria chamomilla)” value (“herbicidal activity rating, MC” for short) in data set [11] was 3 (percentage of weeds killed was not less than 40% and less than 60%).
On to `CCS(=O)(=O)CCNC(=O)c1cc(OC)cc(Oc2cccc(C(F)(F)F)c2)n1` [Compound I-68, N-{2-(ethylsulfonyl)ethyl}-4-methoxy-6-{3-(trifluoromethyl)phenoxy}-2-pyridine carboxamide], for which the melting point fell in the range of 92 to 94 °C. Also, the “herbicidal activity rating, AT (Abutilon theophrasti)” value in data set [1] is reported as 5 (percentage of weeds killed was not less than 80%). For the same compound, the “herbicidal activity rating, SA” value in [2] is on record as 5 (percentage of weeds killed was not less than 80%). Also, in data set [3], the “herbicidal activity rating, AR” value is 5 (percentage of weeds killed was not less than 80%). For the same compound, the “herbicidal activity rating, CA” value in data set [4] is 4 (percentage of weeds killed was not less than 60% and less than 80%). The “herbicidal activity rating, SM” value in data set [5] is 4 (percentage of weeds killed was not less than 60% and less than 80%). The “herbicidal activity rating, BP” value in [6] was 4 (percentage of weeds killed was not less than 60% and less than 80%). Moreover, in data set [7], the “herbicidal activity rating, CO” value is reported as 5 (percentage of weeds killed was not less than 80%). The “herbicidal activity rating, VH” value in data set [8] was 5 (percentage of weeds killed was not less than 80%). In addition, the “herbicidal activity rating, GA” value in data set [9] is 5 (percentage of weeds killed was not less than 80%). In addition, in data set [10], the “herbicidal activity rating, SN” value was 5 (percentage of weeds killed was not less than 80%). The “herbicidal activity rating, MC” value in data set [11] was 2 (percentage of weeds killed was not less than 20% and less than 40%).
For the compound `COc1cc(Oc2cccc(C(F)(F)F)c2)nc(C(=O)NCC(F)(F)C(F)(F)F)c1` [Compound I-81], the “herbicidal activity rating, AT (Abutilon theophrasti)” value in [1] is reported as 5 (percentage of weeds killed was not less than 80%). In [2], the “herbicidal activity rating, SA” value is 5 (percentage of weeds killed was not less than 80%). Further, the “herbicidal activity rating, AR” value in [3] is 5 (percentage of weeds killed was not less than 80%). Besides, the “herbicidal activity rating, CA” value in [4] is 5 (percentage of weeds killed was not less than 80%). The “herbicidal activity rating, SM” value in data set [5] is on record as 5 (percentage of weeds killed was not less than 80%). Moreover, the “herbicidal activity rating, BP” value in [6] is listed as 5 (percentage of weeds killed was not less than 80%). In addition, the “herbicidal activity rating, CO” value in data set [7] was 5 (percentage of weeds killed was not less than 80%). Besides, the “herbicidal activity rating, VH” value in data set [8] is 5 (percentage of weeds killed was not less than 80%). Besides, in data set [9], the “herbicidal activity rating, GA” value is given as 5 (percentage of weeds killed was not less than 80%). For the same compound, in [10], the “herbicidal activity rating, SN” value is on record as 5 (percentage of weeds killed was not less than 80%). Besides, the “herbicidal activity rating, MC” value in [11] is 5 (percentage of weeds killed was not less than 80%).
